Results published in paper PMC9235362 (Journal of medicinal chemistry, 2021).

How the values were obtained:
human 5-HT2B receptors [1] = target: T1, human 5-HT2B receptors (Homo sapiens, UniProt P41595); format: binding; conditions: 100 nM alkaloid; [125I](±)DOI; CHO-K1 cells
5-HT3Rs = target: T2, 5-HT3Rs (Homo sapiens, UniProt P46098); assay: Radioligand competition binding at 5-HT3Rs
T2 sequence (P46098 24-478): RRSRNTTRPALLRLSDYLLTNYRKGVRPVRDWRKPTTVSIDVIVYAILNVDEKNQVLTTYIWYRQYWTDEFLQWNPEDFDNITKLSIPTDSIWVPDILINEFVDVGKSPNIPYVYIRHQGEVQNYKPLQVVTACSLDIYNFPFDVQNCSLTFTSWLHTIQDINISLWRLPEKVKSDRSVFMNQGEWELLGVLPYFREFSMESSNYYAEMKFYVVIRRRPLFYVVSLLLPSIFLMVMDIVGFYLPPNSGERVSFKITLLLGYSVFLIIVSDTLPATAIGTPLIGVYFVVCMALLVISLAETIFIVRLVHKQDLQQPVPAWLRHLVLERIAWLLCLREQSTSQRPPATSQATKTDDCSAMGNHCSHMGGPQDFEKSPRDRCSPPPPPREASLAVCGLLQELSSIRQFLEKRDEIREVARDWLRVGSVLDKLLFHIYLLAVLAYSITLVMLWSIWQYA

adrenergic α1D receptors = conditions: read-out: Ki adrenergic α1D receptors; cited from earlier work
5-HT1A receptors = conditions: cited from earlier work
hMOR = conditions: BRET G protein activation assay, cited from earlier work
human 5-HT1ARs [2] = target: T3, human 5-HT1ARs (Homo sapiens, UniProt P08908); assay: In vitro 5-HT1A receptor cAMP signaling; format: cell-based; conditions: for 5-HT1A E/Imax: Emax is the percent maximum serotonin, agonist, response, value (SEM), N.A. = no activation or inactivation up to 30 μM
T3 sequence (P08908 1-422): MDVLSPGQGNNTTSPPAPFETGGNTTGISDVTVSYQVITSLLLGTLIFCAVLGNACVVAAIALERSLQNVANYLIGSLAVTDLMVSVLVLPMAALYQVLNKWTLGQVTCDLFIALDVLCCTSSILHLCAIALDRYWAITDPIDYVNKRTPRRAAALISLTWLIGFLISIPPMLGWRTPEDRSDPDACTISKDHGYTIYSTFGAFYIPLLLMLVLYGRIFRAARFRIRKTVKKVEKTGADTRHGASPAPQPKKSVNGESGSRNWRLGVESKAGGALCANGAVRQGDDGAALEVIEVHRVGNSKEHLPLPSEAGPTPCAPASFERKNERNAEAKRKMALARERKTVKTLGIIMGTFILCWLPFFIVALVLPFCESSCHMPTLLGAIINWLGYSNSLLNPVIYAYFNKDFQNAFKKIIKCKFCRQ

human 5-HT1ARs [3] = target: T3, human 5-HT1ARs; assay: Radioligand competition binding at human 5-HT1ARs; conditions: present study versus 540 nM of ref 13
human 5-HT1A receptor = conditions: read-out: Ki human 5-HT1A receptor orthosteric binding site; cited from earlier work
human 5-HT2B receptors [4] = target: T1, human 5-HT2B receptors; assay: 5-HT2B receptor phosphoinositide hydrolysis; format: cell-based; conditions: for 5-HT2B E/Imax (Imax): Imax is the percent maximum SB 206553, inverse agonist, response, value (SEM), N.A. = no activation or inactivation up to 30 μM; for In vitro functional activity at human 5-HT2BRs: phosphoinositide hydrolysis assay
[5] = i.v., male rats

T1 sequence (P41595 whole entry): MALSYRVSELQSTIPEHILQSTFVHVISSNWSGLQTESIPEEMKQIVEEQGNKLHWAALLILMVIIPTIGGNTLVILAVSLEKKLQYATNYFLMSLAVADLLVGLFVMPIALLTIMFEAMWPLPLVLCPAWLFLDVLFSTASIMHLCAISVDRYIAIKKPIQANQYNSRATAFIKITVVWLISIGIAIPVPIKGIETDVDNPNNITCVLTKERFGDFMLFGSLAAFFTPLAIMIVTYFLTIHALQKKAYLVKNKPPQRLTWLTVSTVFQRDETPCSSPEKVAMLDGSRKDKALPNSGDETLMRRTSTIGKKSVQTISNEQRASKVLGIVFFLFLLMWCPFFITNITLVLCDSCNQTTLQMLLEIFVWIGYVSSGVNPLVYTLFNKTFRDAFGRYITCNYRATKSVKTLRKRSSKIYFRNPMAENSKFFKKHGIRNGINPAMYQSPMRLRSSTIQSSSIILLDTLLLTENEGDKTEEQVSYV

CC[C@@H]1CN2CCc3c([nH]c4ccccc34)[C@@H]2C[C@@H]1/C(=C\OC)C(=O)OC [corynantheidine]
Percent displacement of radioligand, 5-HT2B (human 5-HT2B receptors [1]): 14.8% | Percent displacement of radioligand, 5-HT3 (5-HT3Rs; 100 nM alkaloid): 6.2% | Percent displacement of radioligand, 5-HT3 (5-HT3Rs; 10,000 nM alkaloid): 6.8% | Ki (adrenergic α1D receptors): 41 nM

C/C=C1/CN2CCc3c([nH]c4ccccc34)[C@@H]2C[C@@H]1/C(=C/OC)C(=O)OC [Geissoschizine methyl ether]
Activity at 5-HT1A receptors (5-HT1A receptors): potent antagonist

CC[C@@H]1CN2CCc3c([nH]c4cccc(OC)c34)[C@H]2C[C@@H]1/C(=C\OC)C(=O)OC [speciociliatine]
Functional activity at hMOR (hMOR): low-potency, competitive antagonists

O=C1c2ccccc2S(=O)(=O)N1CCCCN1CCN(c2ncccn2)CC1 [ipsapirone, reference compound]
5-HT1A E/Imax (human 5-HT1ARs [2]): 82 (0.1) %

CC[C@H]1CN2CCc3c([nH]c4cccc(OC)c34)[C@@H]2C[C@@H]1/C(=C\OC)C(=O)OC [speciogynine, Methyl(E)-2-((2S,3R,12bS)-3-ethyl-8-methoxy-1,2,3,4,6,7,12,12b-octahydroindolo[2,3-a]quinolizin-2-yl)-3-methoxyacrylate]
Affinity for 5-HT1ARs relative to previously reported value (human 5-HT1ARs [3]): > 10 fold | Functional activity at hMOR (hMOR): low-potency, competitive antagonists | Ki (human 5-HT1A receptor): 540 nM | EC50 (human 5-HT2B receptors [4]): 2020 nM | 5-HT2B E/Imax (Imax) (human 5-HT2B receptors [4]): 24.8 (6.9) % | In vitro functional activity at human 5-HT2BRs (human 5-HT2B receptors [4]): no agonist activity

Methyl(4S,4aR,13bS,14aS)-4-methyl-4a,5,7,8,13,13b,14,14a-octahydro-4H-indolo[2,3-a]pyrano[3,4-g]quinolizine-1-carboxylate [ajmalicine]
Percent displacement of radioligand, 5-HT2B (human 5-HT2B receptors [1]): 6.2% | Percent displacement of radioligand, 5-HT3 (5-HT3Rs; 100 nM alkaloid): −2.5% | Percent displacement of radioligand, 5-HT3 (5-HT3Rs; 10,000 nM alkaloid): 1.8% | Ki (human 5-HT1A receptor): 420 nM

CC[C@@H]1CN2CCc3c([nH]c4cccc(OC)c34)[C@@H]2C[C@@H]1/C(=C\OC)C(=O)OC [mitragynine]
Dose-normalized exposure (AUCinf/dose) relative to paynantheine [5]: 3.6 fold | Dose-normalized exposure (AUCinf/dose) relative to speciogynine [5]: 1.7 fold

Cn1ccc2cc3c(cc21)CCN3C(=O)Nc1cccnc1 [SB 206553, reference compound]
EC50 (human 5-HT2B receptors [4]): 15.3 nM | 5-HT2B E/Imax (Imax) (human 5-HT2B receptors [4]): 100%

C=C[C@H]1CN2CCc3c([nH]c4cccc(O)c34)[C@@H]2C[C@@H]1/C(=C\OC)C(=O)OC [9-O-desmethylpaynantheine (gambireine), Methyl(E)-2-((2S,3R,12bS)-8-hydroxy-3-vinyl-1,2,3,4,6,7,12,12b-octahydroindolo[2,3-a]quinolizin-2-yl)-3-methoxyacrylate]
EC50 (human 5-HT1ARs [2]): 865 nM | 5-HT1A E/Imax (human 5-HT1ARs [2]): 100 (0.08) % | EC50 (human 5-HT2B receptors [4]): 2340 nM | 5-HT2B E/Imax (Imax) (human 5-HT2B receptors [4]): 38 (10.3) %

NCCc1c[nH]c2ccc(O)cc12 [serotonin, reference compound]
5-HT1A E/Imax (human 5-HT1ARs [2]): 100%

C=C[C@H]1CN2CCc3c([nH]c4cccc(OC)c34)[C@@H]2C[C@@H]1/C(=C\OC)C(=O)OC [paynantheine, Methyl(E)-3-methoxy-2-((2S,3R,12bS)-8-methoxy-3-vinyl-1,2,3,4,6,7,12,12b-octahydroindolo[2,3-a]quinolizin-2-yl)acrylate]
Percent displacement of radioligand, 5-HT3 (5-HT3Rs; 100 nM alkaloid): −9.8% | Percent displacement of radioligand, 5-HT3 (5-HT3Rs; 10,000 nM alkaloid): −0.8% | Functional activity at hMOR (hMOR): low-potency, competitive antagonists | In vitro functional activity at human 5-HT2BRs (human 5-HT2B receptors [4]): no agonist activity

CC[C@H]1CN2CCc3c([nH]c4cccc(O)c34)[C@@H]2C[C@@H]1/C(=C\OC)C(=O)OC [9-O-desmethylspeciogynine (gambirine), Methyl(E)-2-((2S,3R,12bS)-3-ethyl-8-hydroxy-1,2,3,4,6,7,12,12b-octahydroindolo[2,3-a]quinolizin-2-yl)-3-methoxyacrylate]
EC50 (human 5-HT1ARs [2]): 838 nM | 5-HT1A E/Imax (human 5-HT1ARs [2]): 99 (0.08) % | EC50 (human 5-HT2B receptors [4]): 1470 nM | 5-HT2B E/Imax (Imax) (human 5-HT2B receptors [4]): 45 (14.3) %

CC[C@@H]1CN2CCc3c([nH]c4cccc(O)c34)[C@@H]2C[C@@H]1/C(=C\OC)C(=O)OC [9-hydroxycorynantheidine]
Percent displacement of radioligand, 5-HT2B (human 5-HT2B receptors [1]): 5.2% | Percent displacement of radioligand, 5-HT3 (5-HT3Rs; 100 nM alkaloid): −1.3% | Percent displacement of radioligand, 5-HT3 (5-HT3Rs; 10,000 nM alkaloid): 7.3%
